# From ChEMBL document CHEMBL6153120, “Identification of Structurally Novel KRASG12C Inhibitors through Covalent DNA-Encoded Library Screening” (J Med Chem, 2025)
# Key:
# [1] = Inhibition of ERK1/2 phosphorylation in human MIA PaCa-2 cells incubated for 2 hrs by MSD assay; type: cell-based; settings: MIA PaCa-2, 2 h
# MIA PaCa-2 = assay: Antiproliferative activity against human MIA PaCa-2 cells assessed as reduction in cell viability incubated for 72 hrs by Cell Titer-Glo reagent based luminescent cell viability assay; type: functional; settings: MIA PaCa-2, 72 h
# [2] = Unbound AUC in mouse at 100 mg/kg, po; type: ADME, organism-based; settings: in vivo
# [3] = Oral bioavailability in mouse; type: ADME, organism-based; settings: in vivo
# [4] = Unbound AUC in mouse at 5 mg/kg, po; type: ADME, organism-based; settings: in vivo
# GTPase KRas = GTPase KRas (Homo sapiens, UniProt P01116, C118A/G12C); assay: Inhibition of recombinant His-tagged GDP-bound human KRAS G12C/C118A mutant (1 to 169 residues) (unknown origin) extracted by Escherichia coli assessed as SOS1-catalyzed GDP-GTP exchange preincubated for 2 hrs followed by SOS1 and GTP addition for 30 mins and measured after 45 mins of GST-tagged c-RAF addition by luminescence based Alphascreen assay
# animal or person = settings: Mus musculus, MIA PaCa-2, po, 2 h, read-out: INH
# [5] = Clearance in mouse; type: ADME, organism-based; settings: in vivo
IC50 [1] [µM],IC50 (MIA PaCa-2) [µM],fAUC [2] [µM·h],bioavailability [3] [%],fAUC [4] [µM·h],IC50 (GTPase KRas) [µM],clearance [5] [mL/min/kg],SMILES,inhibition in vivo at 100 mg/kg (animal or person) [%]
0.067,0.042,–,–,–,–,–,C=CC(=O)N1CC2(CCN(c3nc4c(c(-c5c(C)ccc6[nH]ncc56)c3C#N)CCC(C)(C)C4)C2)C1 (atropisomer P),–
0.1,0.032,0.137,44,0.018,–,–,C=CC(=O)N1CC2(CCN(c3nc4c(c(-c5cc(O)cc6ccccc56)c3C)COC(C)(C)C4)C2)C1,–
8.13,> 5,–,–,–,0.89,–,C=CC(=O)N1CC2(CCN(c3nc4c(c(-c5cccc6sc(N)nc56)n3)CCCC4)C2)C1,–
–,–,1.01,14,0.021,–,–,C=CC(=O)N1CC2(CCN(c3nc4c(c(-c5cc(O)cc6ccccc56)c3F)C[C@H]3C[C@@H]4C3(C)C)C2)C1,55
1.23,0.72,–,–,–,0.61,–,C=CC(=O)N1CC2(CCN(c3nc(N[C@H](CC(=O)NC)CC(C)C)nc(-c4cccc(OC)c4F)n3)C2)C1,–
0.158,0.096,–,3,0.003,0.064,90,C=CC(=O)N1CC2(CCN(c3nc4c(c(-c5c(C)ccc6[nH]ncc56)c3C#N)COC(C)(C)C4)C2)C1,–
0.95,0.72,–,–,–,0.3,–,C=CC(=O)N1CC2(CCN(c3nc(N[C@H](CC(=O)NC)CC(C)C)nc(-c4cc(F)ccc4OC)n3)CC2(F)F)C1,–
–,–,0.15,50,0.042,–,–,C=CC(=O)N1CC2(CCN(c3nc4c(c(-c5cc(O)cc6ccccc56)c3Cl)COC(C)(C)C4)C2)C1,–
6.39,3.35,–,–,–,0.84,–,C=CC(=O)N1CC2(CCN(c3nc4c(c(-c5c(C)ccc6[nH]ncc56)n3)CCC(C)(C)C4)C2)C1,–
0.01,0.011,–,–,–,0.019,–,C=CC(=O)N1CC2(CCN(c3nc4c(c(-c5c(C)ccc6[nH]ncc56)c3C#N)C[C@H]3C[C@@H]4C3(C)C)C2)C1,–
0.04,0.021,–,4,0.001,0.019,–,C=CC(=O)N1CC2(CCN(c3nc4c(c(-c5cc(O)cc6ccccc56)c3C#N)C[C@H]3C[C@@H]4C3(C)C)C2)C1,–
6.17,1.29,–,–,–,–,–,C=CC(=O)N1CC2(CCN(c3nc(N[C@H](CC(=O)NC)CC(C)C)c4ccccc4n3)C2)C1,–
0.101,0.143,–,34,0.013,0.022,–,C=CC(=O)N1CC2(CCN(c3nc4c(c(-c5cc(O)cc6ccccc56)c3C#N)COC(C)(C)C4)C2)C1,–
0.217,0.119,0.36,27,0.027,0.062,–,C=CC(=O)N1CC2(CCN(c3nc4c(c(-c5cc(O)cc6ccccc56)c3F)COC(C)(C)C4)C2)C1,–
6.01,–,–,–,–,3.2,–,C=CC(=O)N1CC2(CCN(c3nc(N[C@H](CC(=O)NC)CC(C)C)nc(-c4cccc(OC)c4OC)n3)C(C)C2)C1 (stereo not given in full),–
8.84,–,–,–,–,1.75,–,C=CC(=O)N1CC2(CCN(c3nc(N[C@H](CC(=O)NC)CC(C)C)nc(-c4cccc(OC)c4Cl)n3)CC2)C1,–
1.59,0.89,–,–,–,–,–,C=CC(=O)N1CC2(CCN(c3nc4c(c(N[C@H](CC(=O)NC)CC(C)C)n3)CCCC4)C2)C1,–
8.48,> 5,–,–,–,0.69,–,C=CC(=O)N1CC2(CCN(c3nc4c(c(-c5cc(O)cc6ccccc56)n3)CCCC4)C2)C1,–
8.24,> 5,–,–,–,3.83,–,C=CC(=O)N1CC2(CCN(c3nc4c(c(-c5c(C)ccc6[nH]ncc56)n3)CCCC4)C2)C1,–
